Experimental data reported in patent US7754463B2, “Inhibitors of USP1 Deubiquitinating Enzyme Complex” (Dana-Farber Cancer Institute, priority 2006, dated 2010).
Starred links: 1 amine or outer side, 2 acyl side, 3 side chain; linkers in the order of their positions; H or OH if unused. Positions of bridges follow the written chain, without caps; N, C: chain ends. Non-standard residues stand in square brackets, D forms with d. Residues, ends and D or L forms follow the SMILES beside them. Chains are numbered I, II in the order given. Actinocin(9to1) = Cc1c2oc3c(C)ccc(C(=O)[*:1])c3nc-2c(C(=O)[*:2])c(N)c1=O; NMeV = CN[C@H](C(=O)O)C(C)C; Sar = CNCC(=O)O

Tests used:
UAF1 = UAF1 protein level after blocking transcription in 293T cells; assay type: cell-based, human; details: 5 μg/ml
Description: (§1) A) HeLa cells expressing exogenous Flag-HA-USP1 were irradiated with 50 J/m^2 and samples were taken at the indicated times. Flag-HA-USP1 was immunoprecipitated using anti-Flag antibodies and the immunoprecipitates were analyzed by immunoblotting using the indicated antibodies with the exception of Flag-HA-USP1, which was detected using the mouse monoclonal 12CA5 antibody. B) HeLa cells were UV irradiated with 50 J/m^2 (UVC) and samples were taken at the indicated times. Protein samples were analyzed by immunoblotting using the indicated antibodies. C) 293T cells were UV irradiated with 100 J/m^2 (UVC) and samples were taken at the indicated times. Total RNA was prepared an analyzed by Northern blot analysis using the indicated probes. D) Quantification of the USP1 and total RNA intensities from C. E) 293T cells were treated with 5 μg/ml Actinomycin D and samples were taken at the indicated times. Protein samples were analyzed by immunoblotting using the indicated antibodies.
(§2) UAF1 protein levels were not affected by UV irradiation (FIG. 6A and FIG. 6B). It was speculated that one regulatory event that may reduce USP1 activity after DNA damage may be transcriptional down-regulation of the USP1 gene. To test this hypothesis, USP1 mRNA levels were measured in 293T cells after UV irradiation. […]

USP1 [1] = experiment: USP1 protein level after blocking transcription in 293T cells; assay type: cell-based, human; details: 5 μg/ml
Description: as §1, §2

USP1 mRNA = USP1 mRNA level after transcription inhibition (Northern blot); assay type: cell-based, human; details: Actinomycin D, UV or both; data not shown
Description: Northern blot analysis was performed as described using the 394 nt PstI-EcoRV fragment of the USP1 cDNA (Cohn, M. A., Kramerov, D., Hulgaard, E. F., and Lukanidin, E. M. (1997). The differentiation antigen Ly-6E.1 is expressed in mouse metastatic tumor cell lines. FEBS Lett 403, 181-185).
UAF1 protein levels were not affected by UV irradiation (FIG. 6A and FIG. 6B). It was speculated that one regulatory event that may reduce USP1 activity after DNA damage may be transcriptional down-regulation of the USP1 gene. To test this hypothesis, USP1 mRNA levels were measured in 293T cells after UV irradiation. A rapid decrease of the USP1 mRNA (FIG. 6C) was observed, with kinetics reflecting the decrease of USP1 protein (FIG. 6B). […] To test whether active mRNA degradation also play a role in addition to transcriptional regulation, transcription was inhibited by Actinomycin D, an effective inhibitor of RNA polymerase II, cells were irradiated with UV, or both treatments were combined. […] Importantly, the level of full length USP1 decreased with kinetics similar to those in cells treated with UV irradiation (FIG. 6B).

Ubiquitin-AMC = experiment: In vitro enzymatic activity and kinetics of purified USP1, UAF1 and USP1/UAF1 with Ubiquitin-AMC; assay type: biochemical, human
Description: A) Coomassie blue stain of purified USP1 and UAF1 proteins, expressed either alone of simultaneously as a protein complex in Sf9 cells. B) The in vitro enzymatic activity of USP1, UAF1 or the USP1/UAF1 complex was assayed using Ub-AMC as a substrate. The concentration of each protein was 10 nM. C) Calculation of slopes of the curves in B. The activity of USP1 was arbitrarily set to a value of 1. Relative values for UAF1 and USP1/UAF1 were −0.25 and 36.25, respectively. The slightly negative value for UAF1 is a result of photo bleaching during the experiment. D) UAF1 activates USP1 instantly upon binding in vitro. The enzymatic activity of the USP1 enzyme was monitored as UAF1 was added to the reaction. The concentrations of both USP1 and UAF1 were 2 nM. E) Km and kcat values of the USP1 enzyme and the USP1/UAF1 complex were determined by measuring the substrate conversion at constant enzyme concentration (20 nM for USP1 and 2 nM for the USP1/UAF1 complex) and various substrate concentrations (final concentrations of Ub-AMC of 0.6 μM, 0.75 μM, 1 μM, 1.5 μM and 3 μM for USP1; and 0.42 μM, 0.525 μM, 0.7 μM, 1.05 μM, 2.1 μM […] for the USP1/UAF1 complex). Km and kcat values were calculated by plotting the obtained conversion values in a double-reciprocal Lineweaver-Burk plot. Standard deviation of Km and kcat were calculated from 5-6 independent repeats of the above measurements and are shown in brackets in the table.
Transcription/translation in rabbit reticulocyte was performed according to manufactures recommendations with the exception that the reactions were performed at 30° C. (Promega). In vitro enzymatic assays in the presence of 5 μM Ubiquitin-VS (Ubiquitin-Vinyl Sulfone; U-202; Boston Biochem) were performed 30° C. In vitro enzymatic assays using Ubiquitin-AMC (Ubiquitin-7-amido-4-methylcoumarin; U-550; Boston Biochem) were performed in 50-100 μl reaction buffer (20 mM HEPES-KOH pH 7.8, 20 mM NaCl, 0.1 mg/ml Ovalbumin (A7641; Sigma), 0.5 mM EDTA and 10 mM DTT) at 37° C. Fluorescence was monitored in a FluoStar Galaxy Fluorometer (BMG Labtech Inc.). In vitro deubiquitination reactions of Ub-FANCD2 were performed in 10 μl reaction buffer (90 mM Tris-HCl pH 8.0, 50 mM NaCl, 0.03% NP-40, 4 mg/ml BSA and 2 mM DTT) for 2 h at 30° C.
The enzymatic activity of the purified proteins was assayed using fluorogenic Ubiquitin-AMC as a substrate. […] The activity of the USP1/UAF1 heterodimer was about 30-fold higher than the activity of USP1 alone (FIG. 3C).
In order to better understand the enzymatic consequences of the complex-formation between UAF1 and USP1, the kinetic parameters of the USP1 enzyme alone and the UAF1/USP1 complex were determined. […] This mechanism of activation contrasts with that of another deubiquitinating enzyme, Uch37, which is involved in proteasome-mediated protein degradation. Uch37 is activated by the Adrm1 protein. […] Nat Cell Biol 8, 994-1002).

USP1 [2] = biological target: T1, USP1 (Homo sapiens, UniProt O94782, G670A/G671A); experiment: Activation of USP1 enzymatic activity in vitro by UAF1 wild type or mutant protein; assay type: biochemical; details: all proteins 10 nM, Ub-AMC
T1 construct: His tag (N); made in house; host or cells: Sf9 insect cells
T1 sequence (O94782 1-785 G670A/G671A): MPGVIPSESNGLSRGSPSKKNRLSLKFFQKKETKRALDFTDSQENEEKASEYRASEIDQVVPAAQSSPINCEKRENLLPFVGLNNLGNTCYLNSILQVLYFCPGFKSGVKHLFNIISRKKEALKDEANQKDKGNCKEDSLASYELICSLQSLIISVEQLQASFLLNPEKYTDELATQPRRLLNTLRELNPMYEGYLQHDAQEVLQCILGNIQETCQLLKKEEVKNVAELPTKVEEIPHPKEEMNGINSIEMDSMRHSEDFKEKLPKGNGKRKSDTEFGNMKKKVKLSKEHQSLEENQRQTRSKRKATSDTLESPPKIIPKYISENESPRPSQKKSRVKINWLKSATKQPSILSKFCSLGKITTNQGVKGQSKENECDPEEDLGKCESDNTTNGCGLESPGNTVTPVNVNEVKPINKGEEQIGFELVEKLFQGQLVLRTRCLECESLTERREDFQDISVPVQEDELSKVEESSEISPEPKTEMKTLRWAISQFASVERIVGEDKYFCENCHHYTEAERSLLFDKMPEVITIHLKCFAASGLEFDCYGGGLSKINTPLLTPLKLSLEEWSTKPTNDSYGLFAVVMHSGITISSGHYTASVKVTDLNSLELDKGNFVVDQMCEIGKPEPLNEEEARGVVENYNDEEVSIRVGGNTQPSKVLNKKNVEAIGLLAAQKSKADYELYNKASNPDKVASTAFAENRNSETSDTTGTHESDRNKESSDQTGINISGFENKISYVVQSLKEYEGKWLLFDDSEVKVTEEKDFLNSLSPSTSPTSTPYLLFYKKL
Description: A) Scheme of wild type UAF1 and deletion mutants thereof. B) Flag-tagged deletion mutants of UAF1 were transiently expressed in 293T cells. The Flag-tagged proteins were immunoprecipitated from cell lysates using anti-Flag antibodies. The immunoprecipitates were analyzed using the indicated antibodies. C) A mutant protein of UAF1 where the second WD40 repeat has been deleted (UAF1-ΔWD2) fails to activate USP1 enzymatic activity in vitro. Strep-tagged UAF1-ΔWD2 was expressed and purified from Sf9 insect cells. The enzymatic activity of the USP1 enzyme was monitored as UAF1 wild type or mutant proteins was added to the reaction. The concentrations of all proteins were 10 nM.
The above experiments were performed using a preformed USP1/UAF1 complex. To gain further insight into the dynamics of USP1/UAF1 complex formation and USP1 activation, the kinetics of UAF1 binding and activation of USP1 were investigated. An in vitro enzymatic reaction of USP1 was set up using Ubiquitin-AMC as a substrate. Ten minutes into the reaction, during the stable and low substrate-turnover, either buffer or purified UAF1 protein was added in an equimolar amount to USP1. […] Given the affinity between the two proteins, it was predicted that as USP1 is synthesized in the cell, it rapidly forms a complex with UAF1. If UAF1 is not available, the protein is destabilized and degraded. […]

Compound: Cc1c2oc3c(C)ccc(C(=O)N[C@@H]4C(=O)N[C@H](C(C)C)C(=O)N5CCC[C@H]5C(=O)N(C)CC(=O)N(C)[C@@H](C(C)C)C(=O)O[C@@H]4C)c3nc-2c(C(=O)N[C@@H]2C(=O)N[C@H](C(C)C)C(=O)N3CCC[C@H]3C(=O)N(C)CC(=O)N(C)[C@@H](C(C)C)C(=O)O[C@@H]2C)c(N)c1=O [Actinomycin D] (I: T[dV]P[Sar][NMeV] / II: T[dV]P[Sar][NMeV]; ester I:1-I:C, II:1-II:C; linker I:N-II:N via Actinocin(9to1))
- level of UAF1 protein (UAF1): remained unchanged
- USP1 protein levels over time (USP1 [1]): decrease of USP1 protein levels over time
- USP1 mRNA level (USP1 mRNA): decreased with similar kinetics in all three cases

Compound: UAF1: purified USP1 Associated Factor 1, WD40 repeat protein (SEQ ID NO:4)
- relative activity (slope of Ub-AMC curve), USP1 set to 1 (Ubiquitin-AMC; 10 nM each protein): −0.25
- deubiquitinating activity on Ubiquitin-AMC (Ubiquitin-AMC; purified protein alone): no detectable deubiquitinating activity
- stimulation of USP1 enzymatic activity (USP1 [2]): able to stimulate the enzymatic activity of USP1
